Test results from ChEMBL document CHEMBL1140730, “Validation of diacyl glycerolacyltransferase I as a novel target for the treatment of obesity and dyslipidemia using a potent and selective small molecule inhibitor” (J Med Chem, 2008).

Experiments:
[1] = target: T1, Diacylglycerol O-acyltransferase 1 (Mus musculus, UniProt Q9Z2A7); experiment: Inhibition of mouse recombinant DGAT1 expressed in Sf9 cells
T1 sequence (Q9Z2A7 whole entry): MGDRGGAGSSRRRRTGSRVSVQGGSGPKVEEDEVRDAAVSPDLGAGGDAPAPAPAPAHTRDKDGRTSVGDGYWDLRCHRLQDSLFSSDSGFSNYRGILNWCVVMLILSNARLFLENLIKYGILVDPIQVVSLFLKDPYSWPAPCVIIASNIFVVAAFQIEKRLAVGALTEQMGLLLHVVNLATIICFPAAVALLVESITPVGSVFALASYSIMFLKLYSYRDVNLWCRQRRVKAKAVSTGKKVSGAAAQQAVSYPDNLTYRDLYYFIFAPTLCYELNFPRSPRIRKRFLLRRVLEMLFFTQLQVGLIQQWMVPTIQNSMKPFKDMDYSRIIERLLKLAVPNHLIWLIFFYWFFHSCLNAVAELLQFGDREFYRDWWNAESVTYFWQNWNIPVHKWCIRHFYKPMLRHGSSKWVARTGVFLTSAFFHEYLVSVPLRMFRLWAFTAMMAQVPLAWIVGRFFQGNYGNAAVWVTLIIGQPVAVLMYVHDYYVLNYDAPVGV

[2] = target: T2, Diacylglycerol O-acyltransferase 1 (Homo sapiens, UniProt O75907); experiment: Inhibition of human recombinant DGAT1 expressed in Sf9 cells
T2 sequence (O75907 whole entry): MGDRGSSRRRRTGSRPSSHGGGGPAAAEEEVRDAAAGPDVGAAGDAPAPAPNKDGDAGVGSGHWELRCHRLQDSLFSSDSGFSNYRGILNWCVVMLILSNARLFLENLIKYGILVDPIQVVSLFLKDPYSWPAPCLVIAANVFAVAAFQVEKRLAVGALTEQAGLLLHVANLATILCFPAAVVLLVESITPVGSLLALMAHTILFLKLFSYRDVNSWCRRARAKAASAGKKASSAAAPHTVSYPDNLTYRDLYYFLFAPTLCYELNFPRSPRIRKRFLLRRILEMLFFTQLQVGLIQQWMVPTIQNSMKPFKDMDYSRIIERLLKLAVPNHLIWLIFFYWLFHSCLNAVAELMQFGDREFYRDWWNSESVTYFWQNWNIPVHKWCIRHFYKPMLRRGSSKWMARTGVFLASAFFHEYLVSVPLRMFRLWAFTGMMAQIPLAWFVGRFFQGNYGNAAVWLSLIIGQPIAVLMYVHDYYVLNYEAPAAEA

Row | Compound | IC50 [1] [nM] | IC50 [2] [nM]
1 | O=C(Nc1ccc(-c2ccc(C(=O)[C@@H]3CCC[C@H]3C(=O)O)cc2)cc1)Nc1cccc(F)c1 | 39 | –
2 | O=C(Nc1ccccc1)Nc1ccc(-c2ccc(C(=O)[C@H]3CCC[C@@H]3C(=O)O)cc2)cc1 | – | 96
3 | O=C(Nc1ccc(-c2ccc(C(=O)[C@@H]3CCC[C@H]3C(=O)O)cc2)cc1)Nc1ccccc1C(F)(F)F | 16 | –
